The results in this text go back to ChEMBL document CHEMBL1201862, “PubChem BioAssay data set” (2004).

Some test systems named below: CCRF-CEM; COLO 205; IGROV-1; SF-539; HT-29; HL-60; SK-MEL-2; OVCAR-3; A498; RPMI-8226; SK-MEL-5; UACC-257; A549; OVCAR-5; NCI-H522; SW-620; HCC 2998; HOP-92; HOP-62; LOX IMVI.
What all share (assay): inhibition of tumour cell growth, NCI panel, 48 h

Each structure is given as a SMILES string.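 Interpolation was linear, between the two tested concentrations surrounding the appropriate level; five concentrations were tested over 48 hours in 96-well plates. GI50: concentration for 50% inhibition of growth.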 Active and inactive are the calls of the source. Rule as the data show it: active = GI50 up to about 1.1 µM and inactive = higher.

Consider `COc1ccc(C2=C(Cl)c3cc(OC)c(OC)cc3C2Cl)cc1` (stereo not given), for which the GI50 in the experiment with CCRF-CEM was 2.84 µM (inactive); in the experiment with COLO 205, 17.5 µM (inactive); in the experiment with IGROV-1, 17.4 µM (inactive); with SF-539, 15.3 µM (inactive); in the experiment on HT-29, 14.8 µM (inactive); in the experiment on HL-60, 3.03 µM (inactive). The GI50 in the experiment with SK-MEL-2 was 12.1 µM (inactive); in the experiment on OVCAR-3 it was 16.8 µM (inactive); in the experiment with A498, 13.2 µM (inactive); in the experiment on RPMI-8226 it was 8.17 µM (inactive); in the experiment with SK-MEL-5, 13.7 µM (inactive); with UACC-257, 17.1 µM (inactive). Moreover, the GI50 was 15.4 µM (inactive) in the experiment on A549; 15.5 µM (inactive) with OVCAR-5; 12.5 µM (inactive) in the experiment on NCI-H522; 15.3 µM (inactive) with SW-620; 14.3 µM (inactive) in the experiment on HCC 2998; 12.2 µM (inactive) in the experiment on HOP-92. Besides, the results for the GI50 with HOP-62 and with LOX IMVI were 17.8 µM (inactive) and 12.2 µM (inactive), respectively.

In the case of `CC(=O)OCC1OC(n2cc(F)c(=O)[nH]c2=O)C(N)C(OC(C)=O)C1OC(C)=O` (stereo not given), the GI50 with CCRF-CEM, with COLO 205, in the experiment on IGROV-1, in the experiment on SF-539, in the experiment on HT-29 and in the experiment on HL-60 was > 100 µM (inactive) throughout. Moreover, the GI50 in the experiment on SK-MEL-2, in the experiment with OVCAR-3, in the experiment with A498, in the experiment with RPMI-8226, with SK-MEL-5 and in the experiment with UACC-257 was > 100 µM (inactive) each time. Also, the GI50 in the experiment with A549, with OVCAR-5, in the experiment on NCI-H522, in the experiment with SW-620, in the experiment with HCC 2998 and with HOP-92 was > 100 µM (inactive) throughout. Further, the GI50 in the experiment on HOP-62 and in the experiment on LOX IMVI was > 100 µM (inactive) each time.

Turning to `O=C(Nc1nc2ncn(CCNCc3ccccc3)c2c(=O)[nH]1)c1ccccc1`, the GI50 in the experiment with CCRF-CEM, in the experiment on COLO 205, with IGROV-1, in the experiment with SF-539, in the experiment on HT-29 and in the experiment with HL-60 was > 100 µM (inactive) each time. For the same molecule, the GI50 in the experiment with SK-MEL-2 was > 100 µM (inactive); in the experiment with OVCAR-3, > 100 µM (inactive); in the experiment on A498 it was > 100 µM (inactive); in the experiment on RPMI-8226, 65.3 µM (inactive); with SK-MEL-5 it was > 100 µM (inactive); in the experiment on UACC-257, > 100 µM (inactive). Moreover, the GI50 in the experiment on A549, with OVCAR-5, with NCI-H522, with SW-620, with HCC 2998 and with HOP-92 was > 100 µM (inactive) throughout. For the same molecule, the GI50 in the experiment on HOP-62 and with LOX IMVI was > 100 µM (inactive) each time.

With `COC(=O)c1cc(C)ccc1CC(Cc1cccc(C)c1)C(=O)OC` (stereo not given), the GI50 in the experiment with CCRF-CEM is 46.2 µM (inactive); in the experiment on COLO 205 it was > 100 µM (inactive); with IGROV-1, > 100 µM (inactive); in the experiment with SF-539 it was > 100 µM (inactive); with HT-29, 50.6 µM (inactive); in the experiment on HL-60, 34.7 µM (inactive). Moreover, the GI50 in the experiment on SK-MEL-2 was 47.3 µM (inactive); in the experiment with OVCAR-3, > 100 µM (inactive); in the experiment with A498, > 100 µM (inactive); with RPMI-8226 it was 29.6 µM (inactive); with SK-MEL-5, 34.8 µM (inactive); in the experiment on UACC-257, > 100 µM (inactive). In addition, the GI50 in the experiment on A549 was > 100 µM (inactive); with OVCAR-5, 17.3 µM (inactive); with NCI-H522, 74.6 µM (inactive); in the experiment on SW-620, > 100 µM (inactive); with HCC 2998, > 100 µM (inactive); with HOP-92, 25.8 µM (inactive). The GI50 with HOP-62 and in the experiment with LOX IMVI was > 100 µM (inactive) throughout.

In the case of `O=C1Nc2ccccc2Nc2ccncc21`, the GI50 with CCRF-CEM, in the experiment with COLO 205, with IGROV-1, in the experiment on SF-539, in the experiment on HT-29 and in the experiment on HL-60 was > 100 µM (inactive) each time. The GI50 in the experiment with SK-MEL-2, in the experiment on OVCAR-3, in the experiment on A498, with RPMI-8226, in the experiment on SK-MEL-5 and in the experiment on UACC-257 was > 100 µM (inactive) throughout. Besides, the GI50 in the experiment on A549, in the experiment on OVCAR-5, in the experiment on NCI-H522, in the experiment on SW-620, in the experiment with HCC 2998 and with HOP-92 was > 100 µM (inactive) each time. The GI50 with HOP-62 and in the experiment with LOX IMVI was > 100 µM (inactive) each time.

Consider `COc1ccc2[nH]c(Cl)c(/C=C3/C(=O)Nc4cc(C)c(OC)cc43)c2c1`, for which the GI50 is 3.43 µM (inactive) in the experiment on CCRF-CEM; 2.02 µM (inactive) with COLO 205; 4.31 µM (inactive) with IGROV-1; 0.723 µM (active) with SF-539; 4.23 µM (inactive) in the experiment with HT-29; 1.91 µM (inactive) in the experiment on HL-60. The GI50 was 2.4 µM (inactive) in the experiment with SK-MEL-2; 2.66 µM (inactive) with OVCAR-3; 5.82 µM (inactive) with A498; 4.32 µM (inactive) with RPMI-8226; 2.25 µM (inactive) in the experiment on SK-MEL-5; 11.4 µM (inactive) in the experiment with UACC-257. Further, the GI50 was 5.26 µM (inactive) with A549; 6.93 µM (inactive) in the experiment with OVCAR-5; 2.9 µM (inactive) in the experiment on NCI-H522; 4.21 µM (inactive) in the experiment on SW-620; 4.89 µM (inactive) in the experiment on HCC 2998; 11.7 µM (inactive) in the experiment with HOP-92. In addition, the GI50 in the experiment on HOP-62 is 5.48 µM (inactive); in the experiment with LOX IMVI, 5.3 µM (inactive).

In the case of `O=C1CSc2sc(=S)sc2S1`, the GI50 in the experiment with CCRF-CEM was > 76.4 µM (inactive); in the experiment with COLO 205, > 100 µM (inactive); in the experiment on IGROV-1, > 100 µM (inactive); in the experiment on SF-539, > 100 µM (inactive); with HT-29, > 29.2 µM (inactive); with HL-60, > 61.5 µM (inactive). For the same molecule, the GI50 is > 82.4 µM (inactive) in the experiment on SK-MEL-2; > 100 µM (inactive) in the experiment with OVCAR-3; 31.3 µM (inactive) with A498; 78.9 µM (inactive) in the experiment with RPMI-8226; > 100 µM (inactive) with SK-MEL-5; > 100 µM (inactive) in the experiment with UACC-257. The GI50 in the experiment with A549 was 50.8 µM (inactive); in the experiment with OVCAR-5, > 100 µM (inactive); in the experiment on NCI-H522, > 61.7 µM (inactive); in the experiment with SW-620, > 100 µM (inactive); in the experiment with HCC 2998 it was > 80.2 µM (inactive); in the experiment on HOP-92, > 100 µM (inactive). Also, the figures for the GI50 in the experiment on HOP-62 and with LOX IMVI were > 100 µM (inactive) and 61.1 µM (inactive), respectively.

For `O=C1C(c2ccc(C3=[N+]([O-])c4cc([N+](=O)[O-])ccc4C3=O)cc2)=[N+]([O-])c2cc([N+](=O)[O-])ccc21`, the GI50 in the experiment on CCRF-CEM, in the experiment with COLO 205, with IGROV-1, with SF-539, with HT-29 and in the experiment on HL-60 was > 10 µM (inactive) in each case. The GI50 in the experiment with SK-MEL-2, in the experiment with OVCAR-3, in the experiment with A498, in the experiment on RPMI-8226, in the experiment with SK-MEL-5 and in the experiment on UACC-257 was > 10 µM (inactive) throughout. The GI50 in the experiment on A549, in the experiment with OVCAR-5, in the experiment on NCI-H522, with SW-620, in the experiment with HCC 2998 and in the experiment on HOP-92 was > 10 µM (inactive) each time. Moreover, the GI50 is 66.7 µM (inactive) with HOP-62 and > 10 µM (inactive) in the experiment with LOX IMVI.
